From PubChem BioAssay AID220 (DTP/NCI, 2004) come the findings set out here.

The assay relates to CD8F1 mice, subcutaneous mammary adenocarcinoma, T/C%. Description: NCI In Vivo Anticancer Drug Screen. Data for tumor model Mammary Adenocarcinoma CD8F1 (subcutaneous) in CD8F1. The following applies: higher = larger tumour. In short, it runs like this:
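Transplantable tumors were established in mice, animals were dosed with compound or vehicle, and survival or tumor size was then measured in both groups. The treated result was divided by the control result.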

Where [1] appears, read: endpoint: median tumor weight (est.), dose: 25.0 mg/kg/injection, schedule: Q07DX005 (ip), vehicle: saline.
Where [2] appears, read: endpoint: median tumor weight (est.), dose: 50.0 mg/kg/injection, schedule: Q07DX005 (ip), vehicle: saline.
The mark [3] stands for this setting: endpoint: median tumor weight (est.), dose: 200.0 mg/kg/injection, schedule: Q07DX005 (ip), vehicle: saline.
Setting [4] is: endpoint: median tumor weight change, dose: 125.0 mg/kg/injection, schedule: Q01DX001 (ip), vehicle: saline.
The mark [5] stands for this setting: endpoint: median tumor weight change, dose: 500.0 mg/kg/injection, schedule: Q01DX001 (ip), vehicle: saline.
[6] abbreviates: endpoint: median tumor weight change, dose: 250.0 mg/kg/injection, schedule: Q01DX001 (ip), vehicle: saline with Tween-80.

Where “and” joins values, the source holds several entries; their conditions need not be identical. Identical values can stand only once. Inconclusive results are not listed.

As for `CC[As](=O)(O)CC`, the T/C runs as follows: (endpoint: mean tumor weight, dose: 12.5 mg/kg/injection, schedule: Q07DX005 (ip), vehicle: saline) 100 % of control; (endpoint: mean tumor weight, dose: 12.5 mg/kg/injection, schedule: Q07DX007 (ip), vehicle: saline) 70 % of control; (endpoint: mean tumor weight, dose: 25.0 mg/kg/injection, schedule: Q07DX005 (ip), vehicle: saline) 34 % of control; (endpoint: mean tumor weight, dose: 25.0 mg/kg/injection, schedule: Q07DX007 (ip), vehicle: saline) 56 % of control; (endpoint: mean tumor weight, dose: 50.0 mg/kg/injection, schedule: Q07DX007 (ip), vehicle: saline) 38 % of control; (endpoint: mean tumor weight, dose: 100.0 mg/kg/injection, schedule: Q07DX005 (ip), vehicle: saline) 98 % of control. For the same molecule, the T/C is 111 % of control (endpoint: mean tumor weight, dose: 100.0 mg/kg/injection, schedule: Q07DX007 (ip), vehicle: saline); 41 % of control (endpoint: mean tumor weight, dose: 200.0 mg/kg/injection, schedule: Q07DX005 (ip), vehicle: saline); 53 % of control (endpoint: mean tumor weight, dose: 200.0 mg/kg/injection, schedule: Q07DX007 (ip), vehicle: saline); 96 % of control and 119 % of control (endpoint: median tumor weight (est.), dose: 12.5 mg/kg/injection, schedule: Q07DX005 (ip), vehicle: saline); 62 % of control and 79 % of control under setting [1]; 121 % of control under setting [2]. The T/C under setting [3] was 20 % of control and 41 % of control and 43 % of control.
`C=C1C(=O)OC2CC(C)C3C4OC4C(O)C3(C)C(O)C12` (stereo not drawn): the T/C runs as follows: (endpoint: median tumor weight change, dose: 62.5 mg/kg/injection, schedule: Q01DX001 (ip), vehicle: saline) 119 % of control; under setting [4], 80 % of control; (endpoint: median tumor weight change, dose: 250.0 mg/kg/injection, schedule: Q01DX001 (ip), vehicle: saline) 74 % of control; under setting [5], 88 % of control.
Regarding `COc1ccc2[nH]c3ccc4cc[n+](CCN5CCC(C6CCN(CC[n+]7ccc8ccc9[nH]c%10ccc(OC)cc%10c9c8c7)CC6)CC5)cc4c3c2c1`, the T/C is 58 % of control (endpoint: median tumor weight change, dose: 62.5 mg/kg/injection, schedule: Q01DX001 (ip), vehicle: Klucel (hydroxypropylcellulose) (HPC)) and 68 % of control (endpoint: median tumor weight change, dose: 125.0 mg/kg/injection, schedule: Q01DX001 (ip), vehicle: Klucel (hydroxypropylcellulose) (HPC)).
Regarding `CN(C)C1C(=O)C(C(=O)NP(=O)(NCCCO)N(CCCl)CCCl)=C(O)C2(O)C(=O)C3=C(O)c4c(O)cccc4C(C)(O)C3CC12` (stereo not drawn), the T/C by setting is: under setting [6], 46 % of control and 69 % of control; (endpoint: median tumor weight change, dose: 500.0 mg/kg/injection, schedule: Q01DX001 (ip), vehicle: saline with Tween-80) 21 % of control.
Regarding `C/C=C(\C)c1cc(=O)c2c(C)cc3c(c2o1)C(=O)c1c(O)c(C2CC(C)(N(C)C)C(OC(C)=O)C(C)O2)cc(C2CC(N(C)C)C(O)C(C)O2)c1C3=O` (stereo not drawn), the T/C runs as follows: (endpoint: median tumor weight (est.), dose: 0.15 mg/kg/injection, schedule: Q07DX005 (ip), vehicle: saline) 157 % of control; (endpoint: median tumor weight (est.), dose: 0.31 mg/kg/injection, schedule: Q07DX005 (ip), vehicle: saline) 100 % of control; (endpoint: median tumor weight (est.), dose: 0.62 mg/kg/injection, schedule: Q07DX005 (ip), vehicle: saline) 116 % of control; (endpoint: median tumor weight change, dose: 1.56 mg/kg/injection, schedule: Q01DX001 (ip), vehicle: suspension in saline) 164 % of control; (endpoint: median tumor weight change, dose: 3.12 mg/kg/injection, schedule: Q01DX001 (ip), vehicle: suspension in saline) 153 % of control; (endpoint: median tumor weight change, dose: 6.25 mg/kg/injection, schedule: Q01DX001 (ip), vehicle: suspension in saline) 116 % of control. Further, the T/C is 82 % of control (endpoint: median tumor weight change, dose: 12.5 mg/kg/injection, schedule: Q01DX001 (ip), vehicle: suspension in saline) and 64 % of control (endpoint: median tumor weight change, dose: 25.0 mg/kg/injection, schedule: Q01DX001 (ip), vehicle: suspension in saline).
With `C[Si](C)(C)O/C=C1/CCOC1=O`, the T/C was 96 % of control under setting [4]; 82 % of control under setting [5]; 72 % of control (endpoint: median tumor weight change, dose: 1000.0 mg/kg/injection, schedule: Q01DX001 (ip), vehicle: saline).
For `O=c1[nH]c(=O)n([C@H]2CCCO2)cc1F`, the T/C runs as follows: (endpoint: median tumor weight (est.), dose: 12.5 mg/kg/injection, schedule: Q07DX005 (ip), vehicle: Klucel (hydroxypropylcellulose) (HPC)) 100 % of control; (endpoint: median tumor weight (est.), dose: 20.0 mg/kg/injection, schedule: Q07DX005 (ip), vehicle: Klucel (hydroxypropylcellulose) (HPC)) 82 % of control; (endpoint: median tumor weight (est.), dose: 40.0 mg/kg/injection, schedule: Q07DX005 (ip), vehicle: Klucel (hydroxypropylcellulose) (HPC)) 97 % of control; (endpoint: median tumor weight (est.), dose: 50.0 mg/kg/injection, schedule: Q07DX005 (ip), vehicle: Klucel (hydroxypropylcellulose) (HPC)) 102 % of control; (endpoint: median tumor weight (est.), dose: 100.0 mg/kg/injection, schedule: Q07DX005 (ip), vehicle: Klucel (hydroxypropylcellulose) (HPC)) 84 % of control; (endpoint: median tumor weight (est.), dose: 160.0 mg/kg/injection, schedule: Q07DX005 (ip), vehicle: Klucel (hydroxypropylcellulose) (HPC)) 91 % of control. The T/C is 95 % of control (endpoint: median tumor weight (est.), dose: 200.0 mg/kg/injection, schedule: Q07DX005 (ip), vehicle: Klucel (hydroxypropylcellulose) (HPC)); 10 % of control (endpoint: median tumor weight (est.), dose: 320.0 mg/kg/injection, schedule: Q07DX005 (ip), vehicle: Klucel (hydroxypropylcellulose) (HPC)); 4 % of control (endpoint: median tumor weight (est.), dose: 400.0 mg/kg/injection, schedule: Q07DX005 (ip), vehicle: Klucel (hydroxypropylcellulose) (HPC)).
On to `C[C@]12CC[C@@H]3c4ccc(O)cc4CC[C@H]3[C@@H]1CC[C@@H]2O`, for which the T/C (endpoint: median tumor weight (est.), dose: 6.25 mg/kg/injection, schedule: Q07DX005 (ip), vehicle: Klucel (hydroxypropylcellulose) (HPC)) was 97 % of control and the T/C (endpoint: median tumor weight (est.), dose: 25.0 mg/kg/injection, schedule: Q07DX005 (ip), vehicle: Klucel (hydroxypropylcellulose) (HPC)) was 27 % of control.
As for `O=[n+]1c2ccccc2n([O-])c2ccccc21.[Cl][Ni][Cl]`, the T/C by setting is: (endpoint: median tumor weight change, dose: 15.63 mg/kg/injection, schedule: Q01DX001 (ip), vehicle: saline with Tween-80) 87 % of control; (endpoint: median tumor weight change, dose: 31.25 mg/kg/injection, schedule: Q01DX001 (ip), vehicle: saline with Tween-80) 52 % of control.
As to `O=c1cc(-c2ccccc2)[nH]c2c1CCCC2`, where the note is “endpoint: median tumor weight change, dose: 1000.0 mg/kg/injection, schedule: Q01DX001 (ip), vehicle: saline with Tween-80”, the T/C was 78 % of control.
On to `COc1ccc2c(NCCCCCCNc3c4ccccc4nc4cc(OC)ccc34)c3ccccc3nc2c1`, for which the T/C is, setting by setting: (endpoint: median tumor weight (est.), dose: 1.25 mg/kg/injection, schedule: Q07DX005 (ip), vehicle: lactic acid) 77 % of control; (endpoint: median tumor weight (est.), dose: 2.5 mg/kg/injection, schedule: Q07DX005 (ip), vehicle: lactic acid) 175 % of control; (endpoint: median tumor weight (est.), dose: 5.0 mg/kg/injection, schedule: Q07DX005 (ip), vehicle: lactic acid) 52 % of control.
In the case of `CC(C)CCC(=O)c1ccoc1`, the T/C is 90 % of control (endpoint: median tumor weight change, dose: 0.31 mg/kg/injection, schedule: Q03HX003 (ip), vehicle: saline with Tween-80); 102 % of control (endpoint: median tumor weight change, dose: 0.62 mg/kg/injection, schedule: Q03HX003 (ip), vehicle: saline with Tween-80); 103 % of control (endpoint: median tumor weight change, dose: 1.25 mg/kg/injection, schedule: Q03HX003 (ip), vehicle: saline with Tween-80).
As to `C=CCc1cn(C2CC(O)C(CO)O2)c(=O)[nH]c1=O` (stereo not drawn), the T/C reads like this: under setting [1], 58 % of control; under setting [2], 79 % of control; (endpoint: median tumor weight (est.), dose: 100.0 mg/kg/injection, schedule: Q07DX005 (ip), vehicle: saline) 86 % of control; under setting [3], 248 % of control; (endpoint: median tumor weight (est.), dose: 400.0 mg/kg/injection, schedule: Q07DX005 (ip), vehicle: saline) 75 % of control; (endpoint: median tumor weight (est.), dose: 800.0 mg/kg/injection, schedule: Q07DX005 (ip), vehicle: saline) 79 % of control.
With `Clc1ccc2nnnn2n1`, the T/C by setting is: (endpoint: median tumor weight change, dose: 125.0 mg/kg/injection, schedule: Q01DX001 (ip), vehicle: saline with Tween-80) 49 % of control; under setting [6], 61 % of control.
`CC(=O)NC(Cc1ccc(F)cc1)C(=O)O` (stereo not drawn): the T/C was 117 % of control (endpoint: median tumor weight (est.), dose: 50.0 mg/kg/injection, schedule: Q07DX005 (ip), vehicle: saline with Tween-80); 80 % of control (endpoint: median tumor weight (est.), dose: 100.0 mg/kg/injection, schedule: Q07DX005 (ip), vehicle: saline with Tween-80); 68 % of control (endpoint: median tumor weight (est.), dose: 200.0 mg/kg/injection, schedule: Q07DX005 (ip), vehicle: saline with Tween-80); 153 % of control (endpoint: median tumor weight (est.), dose: 800.0 mg/kg/injection, schedule: Q07DX005 (ip), vehicle: saline with Tween-80).
In the case of `CC(=O)OCC1OC(OC(C)=O)C(NC(=O)N(CCCl)N=O)C(OC(C)=O)C1OC(C)=O` (stereo not drawn), the T/C runs as follows: (endpoint: median tumor weight (est.), dose: 1.5 mg/kg/injection, schedule: Q07DX005 (ip), vehicle: Klucel (hydroxypropylcellulose) (HPC)) 61 % of control; (endpoint: median tumor weight (est.), dose: 3.0 mg/kg/injection, schedule: Q07DX005 (ip), vehicle: Klucel (hydroxypropylcellulose) (HPC)) 41 % of control and 63 % of control and 66 % of control.
With `O=C(O[Si](Cc1ccccc1)(Cc1ccccc1)Cc1ccccc1)N(CCCl)CCCl`, the T/C was 159 % of control (endpoint: median tumor weight change, dose: 62.0 mg/kg/injection, schedule: Q01DX001 (ip), vehicle: saline with Tween-80); 98 % of control and 109 % of control (endpoint: median tumor weight change, dose: 62.5 mg/kg/injection, schedule: Q01DX001 (ip), vehicle: saline with Tween-80).
